This note sets out measurements from ChEMBL document CHEMBL3991601, “The target landscape of clinical kinase drugs” (Science, 2017).

For test [1], the target named is T1, Ras-related protein Rab-27A (Homo sapiens, UniProt P51159).
T1 sequence (P51159 whole entry): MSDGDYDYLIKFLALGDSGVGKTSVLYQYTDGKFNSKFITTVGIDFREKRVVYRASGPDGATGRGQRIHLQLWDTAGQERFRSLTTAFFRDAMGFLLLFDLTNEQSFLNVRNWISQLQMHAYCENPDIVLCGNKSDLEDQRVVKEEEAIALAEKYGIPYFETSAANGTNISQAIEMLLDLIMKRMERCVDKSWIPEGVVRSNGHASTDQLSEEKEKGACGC

Test [2] addresses T2, Serine/threonine-protein kinase TAO1 (Homo sapiens, UniProt Q7L7X3).
T2 sequence (Q7L7X3 whole entry): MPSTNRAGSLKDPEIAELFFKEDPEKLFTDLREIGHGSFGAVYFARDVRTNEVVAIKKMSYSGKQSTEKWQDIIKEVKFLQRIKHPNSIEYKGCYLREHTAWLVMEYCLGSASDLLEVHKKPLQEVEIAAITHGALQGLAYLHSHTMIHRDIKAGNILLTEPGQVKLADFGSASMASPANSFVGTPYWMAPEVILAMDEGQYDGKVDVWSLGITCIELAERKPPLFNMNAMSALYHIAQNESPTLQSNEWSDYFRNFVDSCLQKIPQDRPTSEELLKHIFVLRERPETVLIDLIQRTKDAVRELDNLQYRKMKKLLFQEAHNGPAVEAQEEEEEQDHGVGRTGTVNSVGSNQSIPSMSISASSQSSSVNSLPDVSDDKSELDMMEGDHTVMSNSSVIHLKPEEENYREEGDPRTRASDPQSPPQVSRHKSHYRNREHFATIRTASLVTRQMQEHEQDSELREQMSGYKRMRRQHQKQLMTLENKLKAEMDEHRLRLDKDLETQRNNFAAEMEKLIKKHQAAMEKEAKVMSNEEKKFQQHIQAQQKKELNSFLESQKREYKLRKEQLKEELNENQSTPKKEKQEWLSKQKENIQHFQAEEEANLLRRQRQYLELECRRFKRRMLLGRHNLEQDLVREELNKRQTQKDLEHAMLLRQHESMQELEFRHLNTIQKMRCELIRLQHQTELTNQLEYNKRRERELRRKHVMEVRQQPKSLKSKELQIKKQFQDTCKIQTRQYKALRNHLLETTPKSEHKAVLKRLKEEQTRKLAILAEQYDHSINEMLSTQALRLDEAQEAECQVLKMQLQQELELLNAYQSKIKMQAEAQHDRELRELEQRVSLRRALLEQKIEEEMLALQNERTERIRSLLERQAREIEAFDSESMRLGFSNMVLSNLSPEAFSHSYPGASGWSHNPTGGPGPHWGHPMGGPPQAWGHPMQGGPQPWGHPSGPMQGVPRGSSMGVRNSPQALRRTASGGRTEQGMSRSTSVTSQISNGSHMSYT

Another test has as its target T3, Activin receptor type-1 (Homo sapiens, UniProt Q04771).
T3 sequence (Q04771 whole entry): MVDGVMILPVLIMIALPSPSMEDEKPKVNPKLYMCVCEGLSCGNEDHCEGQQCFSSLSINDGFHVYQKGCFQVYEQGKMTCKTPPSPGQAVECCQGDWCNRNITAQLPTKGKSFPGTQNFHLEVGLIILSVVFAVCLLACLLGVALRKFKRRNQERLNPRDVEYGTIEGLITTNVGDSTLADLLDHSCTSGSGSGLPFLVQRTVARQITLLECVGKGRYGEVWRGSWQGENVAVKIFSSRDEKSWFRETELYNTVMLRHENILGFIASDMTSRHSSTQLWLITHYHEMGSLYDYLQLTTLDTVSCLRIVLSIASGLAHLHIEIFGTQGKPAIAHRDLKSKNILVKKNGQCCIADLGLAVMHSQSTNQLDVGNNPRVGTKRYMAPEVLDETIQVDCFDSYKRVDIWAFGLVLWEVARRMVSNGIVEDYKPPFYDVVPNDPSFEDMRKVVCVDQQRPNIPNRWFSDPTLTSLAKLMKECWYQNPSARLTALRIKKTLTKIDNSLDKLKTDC

Test [3] concerns the target T4, Cyclin-G-associated kinase (Homo sapiens, UniProt O14976).
T4 sequence (O14976 whole entry): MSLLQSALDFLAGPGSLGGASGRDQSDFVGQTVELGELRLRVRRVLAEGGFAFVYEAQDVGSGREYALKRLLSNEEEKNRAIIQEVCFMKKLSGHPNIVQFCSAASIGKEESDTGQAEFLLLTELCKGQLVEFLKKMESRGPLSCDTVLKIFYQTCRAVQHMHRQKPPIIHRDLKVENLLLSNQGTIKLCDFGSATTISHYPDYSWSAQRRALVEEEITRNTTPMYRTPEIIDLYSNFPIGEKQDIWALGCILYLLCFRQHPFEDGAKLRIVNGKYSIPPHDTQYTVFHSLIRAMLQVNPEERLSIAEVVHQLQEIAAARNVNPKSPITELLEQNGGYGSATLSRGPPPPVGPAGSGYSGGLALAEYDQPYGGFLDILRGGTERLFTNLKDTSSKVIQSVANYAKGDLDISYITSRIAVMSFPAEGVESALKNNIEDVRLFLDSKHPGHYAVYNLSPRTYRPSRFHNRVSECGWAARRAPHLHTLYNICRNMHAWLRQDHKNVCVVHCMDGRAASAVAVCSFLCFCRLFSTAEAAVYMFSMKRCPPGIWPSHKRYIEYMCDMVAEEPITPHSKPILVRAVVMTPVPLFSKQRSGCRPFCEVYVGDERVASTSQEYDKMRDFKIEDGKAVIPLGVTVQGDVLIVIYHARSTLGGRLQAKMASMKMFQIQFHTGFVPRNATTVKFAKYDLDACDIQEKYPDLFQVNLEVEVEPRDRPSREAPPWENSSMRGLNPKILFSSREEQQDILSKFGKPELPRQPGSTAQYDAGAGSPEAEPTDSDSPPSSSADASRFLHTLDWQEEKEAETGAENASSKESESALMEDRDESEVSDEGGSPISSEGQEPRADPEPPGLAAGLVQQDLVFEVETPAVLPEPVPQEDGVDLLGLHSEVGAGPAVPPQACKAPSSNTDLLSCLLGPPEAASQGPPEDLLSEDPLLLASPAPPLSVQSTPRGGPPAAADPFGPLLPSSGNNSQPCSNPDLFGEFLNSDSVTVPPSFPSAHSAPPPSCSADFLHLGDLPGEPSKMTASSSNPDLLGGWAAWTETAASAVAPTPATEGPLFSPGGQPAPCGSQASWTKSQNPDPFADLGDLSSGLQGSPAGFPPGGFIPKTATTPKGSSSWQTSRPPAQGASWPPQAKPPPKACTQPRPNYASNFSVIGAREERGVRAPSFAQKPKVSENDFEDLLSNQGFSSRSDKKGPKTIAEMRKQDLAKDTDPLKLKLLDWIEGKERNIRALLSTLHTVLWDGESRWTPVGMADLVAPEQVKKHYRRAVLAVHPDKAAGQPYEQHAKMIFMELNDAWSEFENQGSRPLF

Each structure is given as a SMILES string. The source made the active and inactive calls. Cut-off read from the data, not from the text of the source, for most assays here: actives have a measured Kd and inactives only a lower limit.
Note: in the data inactive means no Kd found up to 30 µM.

Regarding `CCc1nc(C(N)=O)c(Nc2ccc(N3CCC(N4CCN(C)CC4)CC3)c(OC)c2)nc1NC1CCOCC1` [GILTERITINIB], the Kd (commonly a measure of binding affinity in units of concentration) was > 30 µM (inactive) in test [1], > 30 µM (inactive) in test [2], 0.039 µM (active) on Activin receptor type-1 and 0.009 µM (active) in test [3].
Regarding `Cc1cc(Nc2nc(N[C@@H](C)c3ncc(F)cn3)ncc2Cl)n[nH]1` [AZD-1480], the Kd (in test [1]; in test [2]; on Activin receptor type-1; in test [3]) was > 30 µM (inactive) each time.
Turning to `Cc1ccc(C(=O)Nc2ccc(Oc3cc4cnn(C)c4cc3-c3cn[nH]c3)c(F)c2)c(=O)n1-c1ccc(F)cc1` [MERESTINIB], the Kd (in test [1]; in test [2]; on Activin receptor type-1; in test [3]) was > 30 µM (inactive) each time.
Take `C=CCn1c(=O)c2cnc(Nc3ccc(N4CCN(C)CC4)cc3)nc2n1-c1cccc(C(C)(C)O)n1` [ADAVOSERTIB]: the results for the Kd (in test [1]; on Activin receptor type-1; in test [3]) were > 30 µM (inactive), > 30 µM (inactive) and 0.418 µM (active), respectively.
Turning to `CC1(C)CNc2cc(NC(=O)c3cccnc3NCc3ccncc3)ccc21` [MOTESANIB], the Kd in test [1] was > 30 µM (inactive).
As to `COc1cc2c(N3CCN(C(=O)Nc4ccc(OC(C)C)cc4)CC3)ncnc2cc1OCCCN1CCCCC1` [TANDUTINIB], the Kd in test [1] is > 30 µM (inactive).
As for `O=S(=O)(c1cccc2cnccc12)N1CCCNCC1` [FASUDIL], the Kd (in test [1]; on Activin receptor type-1; in test [3]) was > 30 µM (inactive) throughout.
Regarding `Cc1cc(C(=O)Nc2cc(Oc3ccc4nc(NC(=O)C5CC5)cn4n3)ccc2C)n(C)n1` [TAK-593], the Kd (in test [2]; on Activin receptor type-1; in test [3]) was > 30 µM (inactive) throughout.
As to `O=C(O)c1ccc2c(c1)nc(Nc1cccc(Cl)c1)c1ccncc12` [SILMITASERTIB], the values for the Kd (in test [2]; on Activin receptor type-1; in test [3]) were 2.08 µM (active), > 30 µM (inactive) and 5.16 µM (active), respectively.
As to `CCN(CCCOc1ccc2c(Nc3cc(CC(=O)Nc4cccc(F)c4)n[nH]3)ncnc2c1)CCOP(=O)(O)O` [BARASERTIB], the Kd in test [3] was > 30 µM (inactive).
As for `CN(C)C/C=C/C(=O)Nc1cc2c(Nc3ccc(F)c(Cl)c3)ncnc2cc1O[C@H]1CCOC1` [AFATINIB], the Kd in test [1] was > 30 µM (inactive).
Consider `CCN1CCN(Cc2ccc(Nc3ncc(F)c(-c4cc(F)c5nc(C)n(C(C)C)c5c4)n3)nc2)CC1` [ABEMACICLIB], for which the figures for the Kd (in test [1]; on Activin receptor type-1; in test [3]) were > 30 µM (inactive), > 30 µM (inactive) and 2.19 µM (active), respectively.
On to `Cn1cnc2c(F)c(Nc3ccc(Br)cc3Cl)c(C(=O)NOCCO)cc21` [SELUMETINIB], for which the Kd in test [1] was > 30 µM (inactive).
With `C=CC(=O)Nc1cccc(Nc2nc(Nc3ccc(N4CCN(C(C)=O)CC4)cc3OC)ncc2C(F)(F)F)c1` [ROCILETINIB], the results for the Kd (in test [2]; on Activin receptor type-1; in test [3]) were > 30 µM (inactive), > 30 µM (inactive) and 0.45 µM (active), respectively.
For `Cc1c(Cn2c(C)nc3c(C(=O)O)cc(N4CCOCC4)cc32)cccc1C(F)(F)F` [GSK-2636771], the Kd (in test [2]; at Activin receptor type-1; in test [3]) was > 30 µM (inactive) throughout.
Regarding `COc1cc2ncnc(Nc3ccc(O)cc3)c2cc1OC` [WHI-P131], the Kd in test [2] is > 30 µM (inactive); at Activin receptor type-1, > 30 µM (inactive); in test [3] it was 28.7 µM (active).
As for `Cn1c(=O)c(F)c(Nc2ccc(I)cc2F)c2c(=O)n(C[C@@H](O)CO)cnc21` [TAK-733], the Kd (in test [2]; on Activin receptor type-1; in test [3]) was > 30 µM (inactive) each time.
As for `CC(C)(O)CC(=O)NCCn1ccc2ncnc(Nc3ccc(Oc4cccc(C(F)(F)F)c4)c(Cl)c3)c21` [TAK-285], the Kd (in test [2]; at Activin receptor type-1; in test [3]) was > 30 µM (inactive) each time.
Turning to `C=CCN(/C=C1/C(=O)O[C@H](COC)[C@@]2(C)C1=C(O)C(=O)C1=C2[C@H](OC(C)=O)C[C@]2(C)C(=O)CC[C@@H]12)CC=C` [SONOLISIB], the Kd (in test [2]; on Activin receptor type-1; in test [3]) was > 30 µM (inactive) each time.
With `Cn1c(=O)n(-c2ccc(C(C)(C)C#N)cc2)c2c3cc(-c4cnc5ccccc5c4)ccc3ncc21` [DACTOLISIB], the Kd (in test [1]; on Activin receptor type-1; in test [3]) was > 30 µM (inactive) in each case.
As to `CN1CCN(c2nc(C3=C(c4c[nH]c5ccccc45)C(=O)NC3=O)c3ccccc3n2)CC1` [SOTRASTAURIN], the Kd (in test [1]; on Activin receptor type-1; in test [3]) was > 30 µM (inactive) throughout.
In the case of `COc1cc2c(Oc3ccc4[nH]c(C)cc4c3F)ncnc2cc1OCCCN1CCCC1` [CEDIRANIB], the Kd in test [1] is > 30 µM (inactive).
With `C[C@]1(O)C[C@@H](c2nc(-c3ccc4ccc(-c5ccccc5)nc4c3)c3c(N)nccn32)C1` [LINSITINIB], the Kd (in test [1]; at Activin receptor type-1; in test [3]) was > 30 µM (inactive) each time.
As for `CN(c1ncccc1CNc1nc(Nc2ccc3c(c2)CC(=O)N3)ncc1C(F)(F)F)S(C)(=O)=O` [PF-00562271], the Kd in test [1] and in test [3] was > 30 µM (inactive) throughout.
As for `C[C@@]1(C(=O)Nc2ccc(F)nc2)CCCN1c1nc(Nc2cc(C3CC3)n[nH]2)c2cccn2n1` [BMS-754807], in test [1], the Kd is > 30 µM (inactive).
